In series [1] the test system is HRV16 in MRC5 cells. Nature of the series: HRV16 induced CPE in MRC5 cells. The format is cell-based. Conditions: Human rhinovirus sp., HRV-16. How it is done: (j) Assessment of HRV16 Induced CPE in MRC5 Cells
MRC-5 cells are infected with HRV16 at an MOI of 1n DMEM containing 5% FCS and 1.5 mM magnesium chloride, followed by incubation for 1 hr at 33° C. to promote adsorption. The supernatants are aspirated, and then fresh media added followed by incubation for 4 days. Where appropriate, cells are pre-incubated with compound or DMSO for 2 hr, and the compounds and DMSO added again after washout of the virus.
After washing, 1% SDS in distilled water (100 μL) is added to each well, and the plates are shaken lightly for 1-2 hr prior to reading the absorbance at 660 nm. The percentage inhibition for each well is calculated. The IC50 value is calculated from the concentration-response curve generated by the serial dilutions of the test compounds.

The target in series [2] is T1, GSK3α (Homo sapiens, UniProt P49840). In words: GSK 3α enzyme inhibition (FRET), Method 1. Type of series: biochemical. The settings on record: Table 4a1. The procedure, abridged:
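Inhibition is scored from phosphorylation of a dual-labelled synthetic peptide, measured by FRET after protease cleavage of unphosphorylated substrate. Incubations are 2 hr compound with enzyme, then 1 hr kinase reaction.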

Series [3] has as its target Syk (Homo sapiens, UniProt P43405). In words: Syk enzyme inhibition (FRET). Type of series: biochemical. The procedure, abridged: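 2 hr RT enzyme + cpd (added solns 4/0.4/0.04/0.004 μg/mL); + FRET peptide (8 μM soln) + ATP soln (c-Src 800 μM, Syk 60 μM), 1 hr; protease development 1 hr; read donor/acceptor emission ratio.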
Series [4] addresses T1, GSK3α. In words: GSK 3α enzyme inhibition (FRET), Method 2. The format is biochemical. The settings on record: Table 4a2, different laboratory.
In series [5] the test system is d-U937 cells. Nature of the series: Cell viability: MTT assay. Type of series: cell-based, human. Conditions: 1 μg/mL. The procedure, abridged:
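Differentiated U937 cells exposed to compound at 1 or 10 μg/mL, either 4 h in 5% FCS or 24 h in 10% FCS RPMI1640. MTT then added for 1 h, formazan dissolved in DMSO and read at 550 nm. Viability loss given as % versus 0.5% DMSO vehicle; apparent gains appear negative.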
Background: Tetrazolium dyes change colour on reduction, which living cells bring about.

Series [6] relates to IL-2 release, PBMCs. Nature of the series: IL-2 release in CD3/CD28 stimulated PBMC cells. The format is cell-based. The settings on record: Homo sapiens, read-out: IC50 Values for Inhibition of Cytokine Release, PBMCs, IL-2.
Series [7] has as its system IL-8 release, HT29 cells. In words: IL-1β-induced IL-8 release in HT29 cells. The settings on record: Homo sapiens, HT-29; IL-1β stimulated; read-out: IC50 Values for Inhibition of Cytokine Release, HT29 cells, IL-8. Type of series: cell-based. On the procedure: (d) IL-1β-Induced IL-8 Release in HT29 Cells
HT29 cells, a human colon adenocarcinoma cell line, are plated in a 96 well plate (24 hrs) and pre-treated with compounds at the desired concentration for 2 hours before addition of 5 ng/ml of IL-1β (Abeam) for 24 hours, Supernatants are harvested for IL-8 quantification by Sandwich ELISA (Duo-set, R&D System). The IC50 is determined from the dose response curve.

Series [8] deals with IFN gamma release, PBMCs. Nature of the series: IFN gamma release in CD3/CD28 stimulated PBMC cells. The format is cell-based. The settings on record: Homo sapiens, read-out: IC50 Values for Inhibition of Cytokine Release, PBMCs, IFNγ.
[9] abbreviates: Table 4a2, different laboratory.

Each structure is given as a SMILES string.

What is called IC50 is the point on the concentration scale where inhibition reaches its midpoint.

T1 sequence (P49840 whole entry): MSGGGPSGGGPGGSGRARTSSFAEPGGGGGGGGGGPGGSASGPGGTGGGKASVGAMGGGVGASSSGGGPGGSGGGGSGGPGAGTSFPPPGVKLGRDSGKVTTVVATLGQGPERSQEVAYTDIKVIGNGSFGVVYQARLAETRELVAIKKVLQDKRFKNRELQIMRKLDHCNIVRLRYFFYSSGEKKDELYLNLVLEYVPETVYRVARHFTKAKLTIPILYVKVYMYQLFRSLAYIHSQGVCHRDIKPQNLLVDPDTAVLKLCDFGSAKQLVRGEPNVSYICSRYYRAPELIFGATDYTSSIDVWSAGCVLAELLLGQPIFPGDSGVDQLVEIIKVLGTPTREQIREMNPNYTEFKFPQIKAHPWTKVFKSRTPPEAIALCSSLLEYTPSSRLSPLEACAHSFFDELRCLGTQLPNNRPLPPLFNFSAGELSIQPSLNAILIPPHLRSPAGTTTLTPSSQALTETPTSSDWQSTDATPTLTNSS

Regarding `COc1cc(Nc2nccc(Oc3ccc(NC(=O)Nc4cc(C5CC5)nn4-c4ccc(C)cc4)c4ccccc34)n2)cc(C(=O)NCCN2CCOCC2)c1` [Example 50, 3-((4-((4-(3-(3-cyclopropyl-1-(p-tolyl)-1H-pyrazol-5-yl)ureido)naphthalen-1-yl)oxy)pyrimidin-2-yl)amino)-5-methoxy-N-(2-morpholinoethyl)benzamide], the concentration for half-maximal inhibition (IC50) is 6.8 nM in series [1], greater than 13300 nM in series [2], 32 nM in series [3] (Table 4a1) and no less than 13300 nM in series [4]. Further, in series [5], the “Cell viability at time point in d-U937 cells, 4 h” value is “−ve (−ve and +ve indicate that the value is below and above respectively, the no significant effect threshold, defined as 30% inhibition at 1 μg/mL at the time point indicated)”. Also, in series [5], the “Cell viability at time point in d-U937 cells, 24 h” value (from here on “Cell viability at time point … 24 h”) is “−ve (−ve and +ve indicate that the value is below and above respectively, the no significant effect threshold, defined as 30% inhibition at 1 μg/mL at the time point indicated)”.

Regarding `Cc1ccc(-n2nc(C(C)C)cc2NC(=O)Nc2ccc(Oc3ccnc(Nc4cc(C(=O)NCCN5CCOCC5)cc(C(F)(F)F)c4)n3)c3ccccc23)cc1` [Example 7, 3-((4-((4-(3-(3-isopropyl-1-(p-tolyl)-1H-pyrazol-5-yl)ureido)naphthalen-1-yl)oxy)pyrimidin-2-yl)amino)-N-(2-morpholinoethyl)-5-(trifluoromethyl)benzamide], the IC50 in series [2] was greater than 12600 nM; in series [4] it was 12100 nM; in series [6] it was 260 nM. The “Cell viability at time point in d-U937 cells, 4 h” value in series [5] was “−ve (−ve and +ve indicate that the value is below and above respectively, the no significant effect threshold, defined as 30% inhibition at 1 μg/mL at the time point indicated)”. Further, the “Cell viability at time point … 24 h” value in series [5] is “−ve (−ve and +ve indicate that the value is below and above respectively, the no significant effect threshold, defined as 30% inhibition at 1 μg/mL at the time point indicated)”.

Consider `C#Cc1cc(Nc2nccc(Oc3ccc(NC(=O)Nc4cc(C(C)(C)C)nn4-c4ccc(OC)cc4)c4ccccc34)n2)cc(C(=O)NCCN2CCOCC2)c1` [Example 77, 3-((4-((4-(3-(3-(tert-Butyl)-1-(4-methoxyphenyl)-1H-pyrazol-5-yl)ureido)-naphthalen-1-yl)oxy)pyrimidin-2-yl)amino)-5-ethynyl-N-(2-morpholinoethyl)benzamide], for which the IC50 in series [3] (setting [9]) was 18 nM; in series [7], 2 nM; in series [8] it was 0.8 nM; in series [4], 5950 nM; in series [6], 42.8 nM.

With `COc1ccc(-n2nc(C(C)(C)C)cc2NC(=O)Nc2ccc(Oc3ccnc(Nc4cc(Br)cc(C(N)=O)c4)n3)c3ccccc23)cc1` [Example 42, 3-bromo-5-((4-((4-(3-(3-(tert-butyl)-1-(4-methoxyphenyl)-1H-pyrazol-5-yl)ureido)naphthalen-1-yl)oxy)pyrimidin-2-yl)amino)benzamide], the figures for the half-inhibitory concentration (IC50) in series [1], in series [2] and in series [3] (Table 4a1) were 2.2 nM, greater than 1390 nM and 67 nM, respectively. For the same compound, the “Cell viability at time point in d-U937 cells, 4 h” value in series [5] is “−ve (−ve and +ve indicate that the value is below and above respectively, the no significant effect threshold, defined as 30% inhibition at 1 μg/mL at the time point indicated)”. In addition, the “Cell viability at time point … 24 h” value in series [5] was “−ve (−ve and +ve indicate that the value is below and above respectively, the no significant effect threshold, defined as 30% inhibition at 1 μg/mL at the time point indicated)”.

For the compound `COc1cc(Nc2nccc(Oc3ccc(NC(=O)Nc4cc(C5(C)CC5)nn4-c4ccc(C)cc4)c4ccccc34)n2)cc(C(=O)NCCN2CCOCC2)c1` [Example 51, 3-methoxy-5-((4-((4-(3-(3-(1-methylcyclopropyl)-1-(p-tolyl)-1H-pyrazol-5-yl)ureido)naphthalen-1-yl)oxy)pyrimidin-2-yl)amino)-N-(2-morpholinoethyl)benzamide], the IC50 in series [1] was 1.9 nM; in series [2] it was greater than 13000 nM; in series [3] (Table 4a1), 649 nM. For the same compound, the “Cell viability at time point in d-U937 cells, 4 h” value in series [5] was “−ve (−ve and +ve indicate that the value is below and above respectively, the no significant effect threshold, defined as 30% inhibition at 1 μg/mL at the time point indicated)”. For the same compound, the “Cell viability at time point … 24 h” value in series [5] was “−ve (−ve and +ve indicate that the value is below and above respectively, the no significant effect threshold, defined as 30% inhibition at 1 μg/mL at the time point indicated)”.

Regarding `COc1ccc(-n2nc(C(C)C)cc2NC(=O)Nc2ccc(Oc3ccnc(Nc4cc(OC)cc(C(=O)NCCN5CCOCC5)c4)n3)c3ccccc23)cc1` [Example 53, 3-((4-((4-(3-(3-isopropyl-1-(4-methoxyphenyl)-1H-pyrazol-5-yl)ureido)naphthalen-1-yl)oxy)pyrimidin-2-yl)amino)-5-methoxy-N-(2-morpholinoethyl)benzamide], the IC50 was 2 nM in series [1]; greater than 13000 nM in series [2]; 3 nM in series [3] (Table 4a1); 7260 nM in series [4]; 44.1 nM in series [6]. The “Cell viability at time point in d-U937 cells, 4 h” value in series [5] was “−ve (−ve and +ve indicate that the value is below and above respectively, the no significant effect threshold, defined as 30% inhibition at 1 μg/mL at the time point indicated)”. Moreover, in series [5], the “Cell viability at time point … 24 h” value was “−ve (−ve and +ve indicate that the value is below and above respectively, the no significant effect threshold, defined as 30% inhibition at 1 μg/mL at the time point indicated)”.

As for `COc1cc(Nc2nccc(Oc3ccc(NC(=O)Nc4cc(C(F)(F)C(F)(F)F)nn4-c4ccc(C)cc4)c4ccccc34)n2)cc(C(=O)NCCN2CCOCC2)c1` [Example 9], the IC50 worked out at 1.7 nM in series [1]; 8030 nM in series [2]; 7.3 nM in series [8]; 6510 nM in series [4]; 132 nM in series [6]. Further, the “Cell viability at time point in d-U937 cells, 4 h” value in series [5] was “−ve (−ve and +ve indicate that the value is below and above respectively, the no significant effect threshold, defined as 30% inhibition at 1 μg/mL at the time point indicated)”. For the same compound, in series [5], the “Cell viability at time point … 24 h” value was “−ve (−ve and +ve indicate that the value is below and above respectively, the no significant effect threshold, defined as 30% inhibition at 1 μg/mL at the time point indicated)”.

As for `COc1ccc(-n2nc(C3(C)COC3)cc2NC(=O)Nc2ccc(Oc3ccnc(Nc4cccc(C(=O)NCCN5CCOCC5)c4)n3)c3ccccc23)cc1` [Example 23, 3-((4-((4-(3-(1-(4-methoxyphenyl)-3-(3-methyloxetan-3-yl)-1H-pyrazol-5-yl)ureido)naphthalen-1-yl)oxy)pyrimidin-2-yl)amino)-N-(2-morpholinoethyl)benzamide], the IC50 in series [1] stood at 22.3 nM; in series [2], 2990 nM; in series [3] (Table 4a1) it was 203 nM. In addition, the “Cell viability at time point in d-U937 cells, 4 h” value in series [5] was “−ve (−ve and +ve indicate that the value is below and above respectively, the no significant effect threshold, defined as 30% inhibition at 1 μg/mL at the time point indicated)”. For the same compound, the “Cell viability at time point … 24 h” value in series [5] is “−ve (−ve and +ve indicate that the value is below and above respectively, the no significant effect threshold, defined as 30% inhibition at 1 μg/mL at the time point indicated)”.

As for `COCCNC(=O)c1cc(Nc2nccc(Oc3ccc(NC(=O)Nc4cc(C(C)C)nn4-c4ccc(OC)cc4)c4ccccc34)n2)cc(OC)c1` [Example 11, 3-((4-((4-(3-(3-Isopropyl-1-(4-methoxyphenyl)-1H-pyrazol-5-yl)ureido)naphthalen-1-yl)oxy)pyrimidin-2-yl)amino)-5-methoxy-N-(2-methoxyethyl)benzamide], the IC50 is greater than 14000 nM in series [2]; 75 nM in series [3] (Table 4a1); 126 nM in series [3] (setting [9]); 9950 nM in series [4]; 27.5 nM in series [6]. In addition, the “Cell viability at time point in d-U937 cells, 4 h” value in series [5] was “−ve (−ve and +ve indicate that the value is below and above respectively, the no significant effect threshold, defined as 30% inhibition at 1 μg/mL at the time point indicated)”. Further, the “Cell viability at time point … 24 h” value in series [5] was “−ve (−ve and +ve indicate that the value is below and above respectively, the no significant effect threshold, defined as 30% inhibition at 1 μg/mL at the time point indicated)”.

Source of the values: patent US20140057915A1, “KINASE INHIBITORS” (TOPIVERT PHARMA LIMITED, priority 2012, published 2014).
